Reference: publication PMC6271425, “Synthesis and Sar Study of Diarylpentanoid Analogues as New Anti-Inflammatory Agents” (Molecules, 2014)
“Also recorded” adds a separate entry of the source. Read-outs that look alike come from different tables or passages of the source.

Columns and labels:
[1] = tested on: NO production in IFN-γ/LPS-stimulated RAW 264.7 macrophages; assay: NO suppression (Griess nitrite determination) in IFN-γ/LPS-stimulated RAW 264.7 macrophages; format: cell-based, murine; conditions: for NO Inhibition at 50 µM (%) ± S.E.M: 50 µM test concentration; for inhibition at 50 µM: RAW264.7, 50 µM test concentration, read-out: NO Inhibition at 50 µM (%) ± S.E.M
Protocol: The synthesized compounds were screened for NO suppression activity in IFN-γ/LPS-stimulated RAW 264.7 macrophages at a 50 µM test concentration. […] The IC50 values of the fifty-seven bioactive compounds were determined and compared to that of the positive control, curcumin. An MTT assay was also carried out to confirm that NO inhibition was not due to cytotoxicity. […] The complete bioassay results of all the compounds are provided as Table S2 in Supplementary Data. RAW 264.7 murine macrophages cells obtained from American Type Culture Collection (ATCC, Rockville, MD, USA) were grown in Dulbecco’s Modified Eagle’s Medium (DMEM) containing 10% fetal bovine serum (FBS) and 1% penicillin/streptomycin in a 95% air and 5% CO2 atmosphere at 37 °C. RAW 264.7 cells at 90%–95% confluency were detached and seeded (50,000 cells/well) into a 96-well culture plate with 50 μL of DMEM and incubated for 24 h. The cells were then stimulated in […] of LPS (Escherichia coli, serotype 0111:B4) and 1 ng/ml of interferon-gamma (IFN-γ) in the presence or absence of test compounds for 17 h. Nitrite concentration was then determined by Griess assay by reacting 50 μL of cell culture supernatant with 50 μL of Griess reagent (1% sulfanilamide and 0.1% N-(1-naphthyl)ethylenediamine dihydrochloride in 2.5% phosphoric acid) at room temperature. The optical density was measured at 550 nm after 5 min of incubation at room temperature with a microplate reader.

[2] = Cell cytotoxicity determination (MTT assay); format: cell-based, murine; conditions: mouse, RAW 264.7 macrophage cells, RAW 264.7 cells, read-out: Cytotoxicity IC50 (µM) ± S.E.M
Protocol: (§1) The synthesized compounds were screened for NO suppression activity in IFN-γ/LPS-stimulated RAW 264.7 macrophages at a 50 µM test concentration. […] The IC50 values of the fifty-seven bioactive compounds were determined and compared to that of the positive control, curcumin. An MTT assay was also carried out to confirm that NO inhibition was not due to cytotoxicity. […] The complete bioassay results of all the compounds are provided as Table S2 in Supplementary Data.
(§2) RAW 264.7 murine macrophages cells obtained from American Type Culture Collection (ATCC, Rockville, MD, USA) were grown in Dulbecco’s Modified Eagle’s Medium (DMEM) containing 10% fetal bovine serum (FBS) and 1% penicillin/streptomycin in a 95% air and 5% CO2 atmosphere at 37 °C.
(§3) Supernatant in each well was removed followed by addition of 100 µL DMEM. Subsequently, 20 µL of 3-(4,5-dimethylthiazol-2-yl)-2,5-diphenyltetrazolium bromide (MTT, 5 mg/mL) was then added and the plate was incubated in a 95% air and 5% CO2 atmosphere at 37 °C for 4 h. The mixture of culture media and MTT in all wells were removed and the purplish formazan crystals formed were dissolved in dimethyl sulfoxide (DMSO) and further incubated for 15 min at room temperature. The color intensity was then measured at 570 nm at room temperature.

[3] = Chemical stability test (UV-visible spectra in phosphate buffer pH 7.4); format: physicochemical; conditions: 20 μM in phosphate buffer pH 7.4, 1% DMSO, 30 min at 5-min intervals, 25 °C
Protocol: Poor chemical stability of curcumin has been proven as one of the important factors, which cause its low bioavailability. Therefore, in the present study, we further tested the two best compounds (88 and 97) for their chemical stability at physiological pH and compared it to that of curcumin used as reference. The test was carried out by observing the ultraviolet spectral changes of the targeted compounds for 30 minutes with 5-minutes intervals in phosphate buffer (pH 7.4). Figure 8, Figure 9 and Figure 10 depict the ultraviolet changes of curcumin, compound 88 and compound 97, respectively.
Absorbance readings were taken from 300–600 nm using a SpectraMax Plus 384 (Molecular Devices LLC, Sunnyvale, CA, USA). A stock solution of 50 mM curcumin or active compounds 88 and 97 were prepared and diluted by phosphate buffer (pH 7.4), containing 1% dimethyl sulfoxide (DMSO), to a final concentration of 20 μM. The ultraviolet absorption spectra were collected for over 30 min at 5-min intervals at 25 °C. All spectral measurements were carried out in a 1 cm path-length quartz cuvette.

[4] = tested on: RAW 264.7 cells; assay: Cell cytotoxicity determination (MTT assay); format: cell-based, murine; conditions: read-out: Cytotoxicity IC50 (µM) ± S.E.M
Protocol: as §1, §2, §3

[5] = IFN-γ/LPS-stimulated RAW 264.7 cells
[6] = Mus musculus, IFN-γ/LPS-stimulated RAW 264.7 cells
[7] = Mus musculus, RAW264.7, IFN-γ/LPS-stimulated RAW 264.7 cells, read-out: NO Inhibition IC50 (µM) ± S.E.M
[8] = Mus musculus, RAW264.7, Table 6, NO suppression IC50 used for QSAR, unit inferred, read-out: IC50
[9] = Mus musculus, RAW264.7, −log IC50 of NO suppression, read-out: pIC50 (converted)
[10] = IFN-γ/LPS-stimulated RAW 264.7 cells, read-out: NO Inhibition IC50 (µM) ± S.E.M

IC50 [1, 7] [µM] | IC50 [1, 8] [µM] | IC50 [1, 9] [µM] | IC50 [1, 10] [µM] | SMILES | NO Inhibition at 50 µM (%) ± S.E.M [1, 5] [%] | inhibition at 50 µM [1, 6] [%] | IC50 [2] [µM] | Chemical stability (ultraviolet spectral changes) [3] | IC50 [4] [µM]
9.56 ± 0.468 | 9.6 ± 0.5 | 9.55 | – | O=C(/C=C(O)/C=C/c1ccc(O)c(O)c1)c1ccccc1O [Compound 97] | 98.9 ± 1.6 | 98.9 ± 1.58 | > 100 | excellent chemical stability; also recorded: no significant changes | –
14.7 ± 0.24 | – | – | 14.7 ± 0.2 | COc1cc(/C=C/C(=O)CC(=O)/C=C/c2ccc(O)c(OC)c2)ccc1O [Curcumin, curcumin, reference compound] | 99.3 ± 0.2 | 99.33 ± 0.2 | 28.8 ± 0.77 | gradually decreased over time | 28.8 ± 0.8
4.89 ± 0.312 | 4.9 ± 0.3 | 4.9 | – | O=C(/C=C(O)/C=C/c1ccc(O)c(O)c1)c1cc(Cl)ccc1O [Compound 88] | 99.7 ± 1.2 | 99.7 ± 1.15 | 56.4 ± 1.19 | excellent chemical stability; also recorded: no significant changes | 40.9 ± 1.6
31 ± 2 | – | 30.9 | – | O=C(/C=C(O)/C=C/c1ccccc1O)c1cc(O)ccc1O [Compound 89] | 83.6 ± 2.0 | 83.6 ± 2 | 67.3 ± 0.552 | – | 72.6 ± 2.6
28.9 ± 1.5 | 28.9 ± 1.5 | 28.8 | – | O=C(/C=C(O)/C=C/c1ccccc1O)c1ccccc1O [Compound 79] | 95.5 ± 0.6 | 95.46 ± 0.59 | 72.6 ± 2.61 | – | 56.4 ± 1.2
29.9 ± 0.444 | 29.9 ± 0.4 | 30.2 | – | O=C(/C=C(O)/C=C/c1ccccc1)c1ccc(O)cc1O [Compound 93] | 94.7 ± 2.3 | 94.7 ± 2.28 | 59.46 ± 0.511 | – | 59.5 ± 0.5
19.1 ± 0.644 | 19.1 ± 0.6 | 19.1 | < 20 | O=C(/C=C(O)/C=C/c1ccc(O)cc1)c1ccccc1O [Compound 81] | 91.5 ± 3.9 | 91.5 ± 3.86 | 94.13 ± 0.917 | – | > 100
15.9 ± 0.947 | 15.9 ± 0.9 | 15.8 | < 20 | O=C(/C=C(O)/C=C/c1ccccc1O)c1cc(Cl)ccc1O [Compound 84] | – | 95.2 ± 0.9 | 40.9 ± 1.63 | – | 53.1 ± 1
36.4 ± 1.8 | 36.4 ± 1.8 | 36.3 | – | O=C(/C=C(O)/C=C/c1ccc(Cl)s1)c1ccccc1O [Compound 17] | – | 63.8 ± 2.6 | 67.8 ± 2.87 | – | 67.9 ± 2.9
75 ± 4.9 | 75 ± 4.9 | 74.1 | – | O=C(/C=C(O)/C=C/c1ccco1)c1cc(O)ccc1O [Compound 91] | 83.6 ± 2.8 | 83.6 ± 2.84 | > 100 | – | 94.1 ± 0.9
18.7 ± 0.786 | 18.7 ± 0.8 | 18.6 | < 20 | O=C(/C=C(O)/C=C/c1ccc(O)cc1)c1cc(Cl)ccc1O [Compound 86] | 90.3 ± 2.7 | 90.3 ± 2.66 | 89.1 ± 1.08 | – | 66 ± 1.2
32.3 ± 0.865 | 32.3 ± 0.9 | 32.4 | – | O=C(/C=C(O)/C=C/c1cc(O)ccc1O)c1cc(Cl)ccc1O [Compound 87] | 96.5 ± 1.4 | 96.5 ± 1.42 | 66 ± 1.21 | – | 49.5 ± 1.7
30.8 ± 0.722 | 30.8 ± 0.7 | 30.9 | – | O=C(/C=C(O)/C=C/c1cccc(O)c1)c1ccccc1O [Compound 80] | 97.2 ± 0.7 | 97.22 ± 0.69 | 85 ± 1.44 | – | 67.3 ± 0.6
26.9 ± 0.796 | 26.9 ± 0.8 | 26.9 | – | O=C(/C=C(O)/C=C/c1cccc(O)c1)c1cc(Cl)ccc1O [Compound 85] | 95.9 ± 0.5 | 95.86 ± 0.45 | 53.1 ± 0.973 | – | 89.1 ± 1.1
